Patent US20050054620A1, “Paricalcitol as a chemotherapeutic agent” (priority 2003, published 2005)

Legend:
HT-29 cells = test: Western blot of cell lysates; type: cell-based, human; details: 10^−7M, 72 hrs
Protocol: Western blot analysis was used to determine the levels of proteins involved in cell cycle and differentiation. […] After centrifugation at 15,000×g for 15 min at 4° C., the suspension was collected. Protein concentrations were quantitated using the Bio-Rad assay (Bio-Rad Labolatories, Hercules, Calif.). […] The blots were developed using the Supersignal West Pico Chemiluminescent Substrate Kit (Pierce, Rockford, Ill.). In FIG. 4B, HT-29 cells were exposed to either paricalcitol (10^−7M) or 1,25(OH)2D3(10^−7M). Cell lysates were prepared after 72 hrs of culture and analyzed by Western blot. The Western blot was probed sequentially with antibodies for p27KIP1, p21WAF1, cyclin D1, c-myc and E-Cadherin (antibodies from Santa Cruz Biotechnology) as described in Example II. Control cells were treated with vehicle alone. The quantity of protein was normalized by comparison to the amount of GAPDH. In FIG. 4C, HT-29 and SW837 cells were cultured with either paricalcitol (10^−7M) or 1,25(OH)2D3 (10^−7M) for 72 hrs. Cell lysates were prepared and analyzed by Western blot which was probed sequentially with antibodies to COX-1 and COX-2 (Santa Cruz Biotechnology). Control cells were treated with vehicle alone. The amount of protein was normalized by comparison to the quantity of GAPDH.

HL-60 cells [1] = test: CD14 expression by flow cytometry; type: cell-based, human
Protocol: In order to measure cell surface CD14 antigen on HL-60 cells, promyelocytic leukemia cell line, HL-60, was treated with either 1,25(OH)2D3 or paricalcitol (10^−7M) for 4 days and examined for CD14 expression by flow cytometry using CD14 antibody (DAKO, Carpinteria, Calif.), as described previously (Hisatake et al., supra, 2001). Murine IgG1 antibody (DAKO) was used as a control.
Measurement of cell surface CD14 antigen on HL-60 cells by flow cytometry using CD14 antibody (DAKO, Carpinteria, Calif.), was determined as described previously (Hisatake et al. Blood 97:2427-2433 (2001)). Murine IgG1 antibody (DAKO) was used as a control.

[2] = humans, cited from earlier work
SW837 cells = test: Western blot of cell lysates; type: cell-based, human; details: 10^−7M, 72 hrs
Protocol: Western blot analysis was used to determine the levels of proteins involved in cell cycle and differentiation. […] After centrifugation at 15,000×g for 15 min at 4° C., the suspension was collected. Protein concentrations were quantitated using the Bio-Rad assay (Bio-Rad Labolatories, Hercules, Calif.). […] The blots were developed using the Supersignal West Pico Chemiluminescent Substrate Kit (Pierce, Rockford, Ill.). In FIG. 4C, HT-29 and SW837 cells were cultured with either paricalcitol (10^−7M) or 1,25(OH)2D3 (10^−7M) for 72 hrs. Cell lysates were prepared and analyzed by Western blot which was probed sequentially with antibodies to COX-1 and COX-2 (Santa Cruz Biotechnology). Control cells were treated with vehicle alone. The amount of protein was normalized by comparison to the quantity of GAPDH.

NCI-H929 cells [3] = test: TUNEL assay of apoptosis; type: cell-based, human; details: 10^−7M, 96 hrs, diluant control 4%
Protocol: In FIG. […] Results represent the mean±SD of three independent experiments. A TUNEL assay was performed for immunohistochemical detection and quantification of programmed cell death at the single cell level, based on labeling of DNA strand breaks using the In Situ Cell Death Detection, POD (Roche, Indianapolis, Ind.). Early apoptosis was also detected by measuring annexin V protein in the cell membrane using Annexin V-FITC Kit (CLONTECH, Palo Alto, Calif.) followed by flow cytometric analysis.

NCI-H929 cells [4] = test: Cell cycle analysis by flow cytometry; type: cell-based, human; details: 10^−7M, 72 hrs
Protocol: For cell cycle analysis, cells were exposed to 10^−7M 1,25(OH)2D3, 10^−7M paricalcitol or vehicle control for either 3 or 4 days. Total cells, both in suspension and adherent, were collected, washed, suspended in cold PBS. Then cells were fixed in 75% chilled methanol and stained with propidium iodine. Cell cycle status was analyzed on a Becton Dickinson Flow Cytometer.
HCI-H929 cells were cultured with either paricalcitol (10^−7M) or 1,25(OH)2D3 (10^−7M) for 72 hrs, harvested and stained with propidium iodine (PI). Control cells were treated with vehicle alone.

NCI-H929 cells [5] = test: Western blot of cell lysates; type: cell-based, human; details: 10^−7M
Protocol: Western blot analysis was used to determine the levels of proteins involved in cell cycle and differentiation. […] After centrifugation at 15,000×g for 15 min at 4° C., the suspension was collected. Protein concentrations were quantitated using the Bio-Rad assay (Bio-Rad Labolatories, Hercules, Calif.). […] The blots were developed using the Supersignal West Pico Chemiluminescent Substrate Kit (Pierce, Rockford, Ill.). In FIG. 3C, NCI-H929 cells were treated with either paricalcitol (10^−7M) or 1,25(OH)2D3 (10^−7M) and cell lysates were prepared after 72 hrs. Cell lysates were used for Western blot analysis and probed sequentially with antibodies to p27KIP1, Bcl-2 and Bax. Control cells were treated with vehicle alone. Amount of protein was normalized by comparison to the amount of GAPDH. […] The Bcl-2 and Bax antibodies were obtained from Santa Cruz Biotechnology Inc., Santa Cruz, Calif.

HL-60 cells [6] = test: Western blot of cell lysates; type: cell-based, human
Protocol: (§1) Western blot analysis was used to determine the levels of proteins involved in cell cycle and differentiation. For western blot analysis, cells were washed twice in PBS, suspended in lysis buffer [50 mM Tris (pH 8.0), 150 mM NaCl, 0.1% SDS, 0.5% sodium deoxycholate, 1% NP40, […] phenylmethylsulfonyl fluoride, […] aprotinin, […] pepstatin, and […] leupetin] and placed on ice for 30 min. After centrifugation at 15,000×g for 15 min at 4° C., the suspension was collected. Protein concentrations were quantitated using the Bio-Rad assay (Bio-Rad Labolatories, Hercules, Calif.). Whole lysates ([…]) were resolved by 4-15% SDS polyacrylamide gel, transferred to an immobilon polyvinylidene difuride membrane (Amersham Corp., Arlington Heights, Ill.), and probed sequentially with a number of antibodies (p21WAF1, p27KIP1, PTEN, and GAPDH, Santa Cruz Biotechnology Inc., Santa Cruz, Calif.). The blots were developed using the Supersignal West Pico Chemiluminescent Substrate Kit (Pierce, Rockford, Ill.).
(§2) Western blot analysis was performed as follows: cells were washed twice in PBS, suspended in lysis buffer (50 mM Tris at pH 8.0, 150 mM NaCl, 0.1% SDS, 0.5% sodium deoxycholate, 1% Nonidet P-40, phenylmethylsulfonyl fluoride at 100 μg/mL, aprotinin at 2 μg/mL, pepstatin at 1 μg/mL, and leupetin at 10 μg/mL), and placed on ice for 30 minutes. After centrifugation at 15,000×g for 15 minutes at 4° C., the suspension was collected. Protein concentrations were quantitated by using the Bio-Rad protein Assay Dye Reagent Concentrate (Bio-Rad Laboratories, Hercules, Calif.) according to the manufacture's recommendation. Whole cell lysates (40 μg) were resolved by SDS-polyacrylamide gel electrophoresis in a 4%-15% gel, transferred to a polyvinylidene difuride membrane (Immobilon, Amersham Corp., Arlington Heights, Ill.), and probed sequentially with antibodies against the following proteins: VDR, RXR, CEBPβ, Rb, Bcl-2, Bcl-XL, Bax, p-ERK, RARA, GAPDH (Santa Cruz Biotechnology Inc., Santa Cruz, CA). The blots were developed using the Supersignal West Pico Chemiluminescent Substrate Kit (Pierce, Rockford, Ill.).

NB-4 cells = test: Western blot of cell lysates; type: cell-based, human; details: 10^−7 M, 72 hrs
Protocol: as §1, §2

SMILES: C=C1/C(=C\C=C2/CCC[C@]3(C)[C@@H]([C@H](C)CCCC(C)(C)O)CC[C@@H]23)C[C@@H](O)C[C@@H]1O [1,25(OH)2D3]
- decrease of COX-2 expression (HT-29 cells): 50%
- decrease of c-myc expression (HT-29 cells): ~40%
- decrease of cyclin D1 expression (HT-29 cells): about 50%
- effect on COX-1 expression (HT-29 cells): suppressed COX-2 but not COX-1 expression
- increase of E-cadherin (HT-29 cells): about 6 fold
- cells induced to express CD14 (HL-60 cells [1]; 10^−7M, 96 hrs): 54%
- serum half-life ([2]; paricalcitol compared with 1,25(OH)2D3): similar
- peak serum levels ([2]; typical dose 0.5 to 1.0 mg/every other day): 40 to 60 pg/mL
- decrease of COX-2 expression (SW837 cells): 50%
- effect on COX-1 expression (SW837 cells): suppressed COX-2 but not COX-1 expression
- apoptotic cells (TUNEL) (NCI-H929 cells [3]): 20%
- increase of accumulation in G1/G0 phase (NCI-H929 cells [4]): 7%
- increase in apoptotic sub-G1 population (NCI-H929 cells [4]; diluant control 4% sub-G1): 16%
- decrease of Bcl-2 protein level (NCI-H929 cells [5]; 72 hrs): about 40%
- effect on levels of Bax (NCI-H929 cells [5]; 72 hrs): did not affect
- effect on levels of p21WAF1 (NCI-H929 cells [5]; 96 hrs): little effect
- increase of p27KIP1 expression (NCI-H929 cells [5]; 96 hrs): about 3 fold
- induction of p21WAF1 (HL-60 cells [6]; 10^−7M, 72 hr): approximately 7 fold
- induction of p27KIP1 (HL-60 cells [6]; 10^−7M, 72 hr): about 6 fold
- PTEN expression (in words) (HL-60 cells [6]; 10^−7 M, 72 hrs): induced PTEN expression
- PTEN expression (in words) (NB-4 cells): induced PTEN expression

SMILES: COc1cccc(-c2cc(=O)c3ccccc3o2)c1N [PD98059]
- monocytic differentiation (CD14) induced by paricalcitol and by the combination with arsenic trioxide (HL-60 cells [1]; PD98059 25 μM, 2 days): blocked
